Laboratory results: patent EP3009422A1, “Photo-switchable sulfonylureas and their uses” (Ludwig-Maximilians-Universität München, priority 2014, dated 2016)

Key:
Format in all cases: cell-based
human islets = assay: Calcium imaging in isolated human islets of Langerhans; details: human islets from three donors, 440 nm
Method: Human islets were isolated from deceased heart-beating donors (n = 3) at transplantation facilities in Pisa and Edmonton with the relevant national and local ethical permissions, including consent from next of kin where required, and cultured in RPMI supplemented with 5.5 mM D-glucose, 10% foetal calf serum (FCS), 100 U penicillin, 100 µg streptomycin and 0.25/µl fungizone (37 °C, 5% CO2). All studies involving human tissue were approved by the National Research Ethics Committee (NRES) London (Fulham), REC # 07/H0711/114.
Islets were loaded for 30-45 min in fluo2-AM (10 µM) or for 2-5 min with X-Rhod 1 (5 µM) diluted with a mixture of DMSO (0.01%, wt/vol) and pluronic acid (0.001%, wt/vol; all Invitrogen) in a bicarbonate buffer containing in mM: 120 NaCl, 4.8 KCl, 1.25 NaH2PO4, 24 NaHCO3, 2.5 CaCl2, 1.2 MgCl2 and 5 D-glucose. fMCI was performed using a Zeiss Axiovert M200 fitted with a Nipkow spinning-disk head (Yokogawa CSU-10) and a 10x/0.3NA objective adjusted for chromatic aberration (EC Plan-Neofluar, Zeiss). Pulsed excitation (frequency = 0.5 Hz; exposure = 263 ms) was delivered at 491 nm and emitted signals recorded at 500-550 nm with a back-illuminated 16-bit EM-CCD camera (ImageEM 9100-13; Hamamatsu). During recording, islets were maintained at 35-36 °C in the presence of 50 µM JB253 using a custom-manufactured perfusion and heating system (Digital Pixel). Drugs were introduced through the perfusion system at the indicated time points and concentrations. Violet light was delivered by a 405 ± 5 nm laser coupled to the side port of the microscope and configured to fill the back of the objective with light using an Optospot (Cairn Research). Blue light was delivered using 440 ± 5 nm and 491 ± 5 nm diode lasers controlled by a laser merge module (Spectral Applied Research) to allow simultaneous exposure and acquisition. […] Signals were normalized using F/Fmin where F is fluorescence at a given timepoint and Fmin is minimum fluorescence.

KATP channels = molecular target: T1, KATP channels (Rattus norvegicus, UniProt Q09429); assay: Whole cell patch clamp of HEK293t cells transfected with Kir6.2 and SUR1; details: for Difference (%) in current change between first and last switch / ΔI [pA] first switch / ΔI [pA] last switch: 400 nm; for reversal potential: n = 5 recordings; for % block: versus 500 µM tolbutamide in the same experiment, n = 3
T1 construct: expressed in transfected cells; host or cells: HEK293t (Leibniz-Institut DSMZ: #305)
Method: HEK293t cells (obtained from Leibniz-Institut DSMZ: #305) were incubated in Dulbecco's Modified Eagle Medium (DMEM) + 10% FBS and used for electrophysiological recordings 24-48 hrs following Lipofectamine transfection with plasmids encoding Kir6.2 (Genbank D50581), rat SUR1 (Genbank L40624) and GFP. Whole cell patch clamp experiments were performed using a standard electrophysiology setup equipped with a HEKA Patch Clamp EPC10 USB amplifier and PatchMaster software (HEKA Electronik). Micropipettes were generated from "Science Products GB200-F-8P with filament" pipettes using a vertical puller. Resistance varied between 5-7 MΩ. Bath solution contained in mM: 3 KCl, 118 NaCl, 25 NaHCO3, 2 CaCl2, 1 MgCl2, 10 HEPES (NaOH to pH 7.4). Pipette solution contained in mM: 90 K-gluconate, 10 NaCl, 10 KCl, 1 MgCl2, 10 EGTA, 60 HEPES (KOH to pH 7.3), and the holding potential was -60 mV. Illumination during electrophysiology and UV/Vis experiments was provided by a TILL Photonics Polychrome 5000 monochromator.

Epac2A = assay: Epac2-camps FRET imaging in HEK293t cells; details: HEK293t cells expressing full length Epac2-camps; JB253 as cis-JB253 (excitation 440 nm)
Method: For EPAC2 imaging, HEK293t were transfected with the full length construct for […] containing the cAMP and sulfonylurea binding domains (obtained from Prof. […] Excitation was delivered at 440 nm and emitted signals captured using […] filters. FRET was calculated as the ratio of Cerulean (CFP):Venus (YFP) fluorescence. Signals were normalized using R/R0 where R is the ratio at a given timepoint and R0 is the minimum ratio.

islets = assay: Cytotoxicity assay (calcein-AM / propidium iodide) in islets; details: 1 hr incubation, n = 28 islets from four animals
Method: Islets were incubated with either DMSO or JB253 for 1 hr before staining with 3 µM of calcein-AM (live) and 2.5 µM of propidium iodide (dead). Absorbance/emission was detected at 491/525 nm and 561/620 nm for calcein and PI, respectively. The area of dead:live cells was calculated as a unitary ratio and the observer blinded to treatment identity.

[1] = four dark/400 nm cycles, single cell, ± SEM
[2] = λ 400 nm, 50 µM JB253, ± SD, n = 3 recordings
[3] = λ 420 nm, 50 µM JB253, ± SD, n = 3 recordings
[4] = λ 440 nm, 50 µM JB253, ± SD, n = 3 recordings
[5] = λ 460 nm, 50 µM JB253, ± SD, n = 3 recordings
[6] = λ 480 nm, 50 µM JB253, ± SD, n = 3 recordings
[7] = λ 500 nm, 50 µM JB253, ± SD, n = 3 recordings

T1 sequence (Q09429 whole entry): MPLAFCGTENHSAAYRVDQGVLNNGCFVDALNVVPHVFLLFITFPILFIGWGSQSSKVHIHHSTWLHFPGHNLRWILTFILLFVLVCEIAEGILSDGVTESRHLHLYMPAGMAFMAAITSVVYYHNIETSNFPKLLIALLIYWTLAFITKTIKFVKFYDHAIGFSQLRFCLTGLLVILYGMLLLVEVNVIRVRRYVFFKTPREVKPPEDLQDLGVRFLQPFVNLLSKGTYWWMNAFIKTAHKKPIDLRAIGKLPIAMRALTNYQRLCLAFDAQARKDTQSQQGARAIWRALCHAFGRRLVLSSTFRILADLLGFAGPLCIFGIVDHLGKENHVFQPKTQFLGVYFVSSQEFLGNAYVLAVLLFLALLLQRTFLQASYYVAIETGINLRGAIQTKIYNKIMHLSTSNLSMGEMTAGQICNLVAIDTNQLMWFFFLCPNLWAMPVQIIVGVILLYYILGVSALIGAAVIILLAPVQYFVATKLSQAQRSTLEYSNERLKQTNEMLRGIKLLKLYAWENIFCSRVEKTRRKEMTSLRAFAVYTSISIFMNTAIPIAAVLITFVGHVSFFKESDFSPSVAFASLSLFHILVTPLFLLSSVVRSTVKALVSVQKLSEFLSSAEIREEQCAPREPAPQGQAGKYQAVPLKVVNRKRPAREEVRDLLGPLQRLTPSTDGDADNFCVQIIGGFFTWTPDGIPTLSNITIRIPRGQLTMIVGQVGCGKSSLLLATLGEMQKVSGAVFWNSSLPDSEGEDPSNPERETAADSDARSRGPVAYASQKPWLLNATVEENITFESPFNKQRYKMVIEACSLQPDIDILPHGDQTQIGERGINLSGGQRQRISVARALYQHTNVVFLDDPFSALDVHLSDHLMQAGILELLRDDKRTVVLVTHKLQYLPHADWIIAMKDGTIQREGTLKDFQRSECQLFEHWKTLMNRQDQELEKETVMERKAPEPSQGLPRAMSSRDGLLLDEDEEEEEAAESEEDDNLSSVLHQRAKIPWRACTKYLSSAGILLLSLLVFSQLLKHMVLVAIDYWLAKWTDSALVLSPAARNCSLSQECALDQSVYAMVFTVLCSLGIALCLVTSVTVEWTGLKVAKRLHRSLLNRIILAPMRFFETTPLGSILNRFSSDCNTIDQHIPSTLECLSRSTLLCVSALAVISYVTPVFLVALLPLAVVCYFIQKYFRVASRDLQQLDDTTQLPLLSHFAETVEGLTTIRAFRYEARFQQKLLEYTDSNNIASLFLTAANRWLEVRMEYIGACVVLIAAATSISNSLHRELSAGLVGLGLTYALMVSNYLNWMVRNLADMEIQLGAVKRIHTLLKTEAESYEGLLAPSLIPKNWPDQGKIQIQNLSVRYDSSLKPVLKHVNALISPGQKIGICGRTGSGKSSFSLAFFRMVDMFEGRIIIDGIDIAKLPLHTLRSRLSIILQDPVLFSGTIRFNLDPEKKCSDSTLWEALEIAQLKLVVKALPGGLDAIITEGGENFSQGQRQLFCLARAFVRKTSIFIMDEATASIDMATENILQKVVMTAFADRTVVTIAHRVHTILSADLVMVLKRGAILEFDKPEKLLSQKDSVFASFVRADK
T1 sequence (Q61743 whole entry partner): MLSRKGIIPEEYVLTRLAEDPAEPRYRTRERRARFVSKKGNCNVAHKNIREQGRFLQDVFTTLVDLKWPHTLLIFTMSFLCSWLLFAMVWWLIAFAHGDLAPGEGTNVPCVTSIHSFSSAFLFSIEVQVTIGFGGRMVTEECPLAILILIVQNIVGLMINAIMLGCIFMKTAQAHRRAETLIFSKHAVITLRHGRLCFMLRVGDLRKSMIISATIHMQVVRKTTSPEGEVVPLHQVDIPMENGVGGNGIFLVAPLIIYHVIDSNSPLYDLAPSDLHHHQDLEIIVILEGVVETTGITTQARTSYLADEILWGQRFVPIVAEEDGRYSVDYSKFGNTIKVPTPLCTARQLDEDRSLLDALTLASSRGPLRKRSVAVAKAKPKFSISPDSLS

## CCN(CC)c1ccc(/N=N/c2ccc(S(=O)(=O)NC(=O)NC3CCCCC3)cc2)cc1 [JB253, (E)-N-(cyclohexylcarbamoyl)-4-((4-(diethylamino)phenyl)diazenyl)benzenesulfonamide]
Human islets
  X-Rhod1-loaded cells responding with Ca^2+ rises: ~62%
KATP channels; experiment 1, 12 cycles
  Difference (%) in current change between first and last switch: 34.4%
  ΔI [pA] first switch: 136.5 pA
  ΔI [pA] last switch: 89.5 pA
KATP channels; experiment 2, 9 cycles
  Difference (%) in current change between first and last switch: 3.4%
  ΔI [pA] first switch: 438.8 pA
  ΔI [pA] last switch: 423.8 pA
KATP channels; experiment 3, 5 cycles
  Difference (%) in current change between first and last switch: 19.5%
  ΔI [pA] first switch: 200.0 pA
  ΔI [pA] last switch: 161.0 pA
KATP channels; experiment 4, 4 cycles
  Difference (%) in current change between first and last switch: 2.1%
  ΔI [pA] first switch: 521 pA
  ΔI [pA] last switch: 510 pA
KATP channels; HEK293t Kir6.2/SUR1
  wavelength of maximal photoblock of KATP channels: 460 nm
KATP channels; HEK293t Kir6.2/SUR1, holding potential -60 mV, n = 3 recordings
  photoswitching of K^+ currents at wavelengths > 560 nm: unable to photoswitch
KATP channels; block upon exposure to 400 nm
  τon: 400 ms
KATP channels; dark state, 50 µM JB253, a fraction of the effect of 500 µM tolbutamide
  K^+ current amplitude: partly reduced
KATP channels; dark, ± SEM
  reversal potential: -90.0 ± 1.8 mV
KATP channels; [1]
  ΔI: 504.8±6.9 pA
  τoff: 1472 ± 75 ms
  τon: 477 ± 26 ms
KATP channels; illuminated, ± SEM
  reversal potential: -87.8 ± 1.6 mV
KATP channels; illumination with wavelengths between 400-500 nm, 50 µM JB253
  block relative to that recorded using 500 µM tolbutamide: 45-72%
KATP channels; repeated dark/400 nm cycles, mean of all experiments
  difference in ΔI [pA] between first and last switch: 14.9 ± 7.6%
KATP channels; thermal relaxation after light source shut off (400 nm)
  τoff: 1500 ms
KATP channels; λ 400 nm, 50 µM JB253, single representative experiment
  ΔI: 216 pA
KATP channels; λ 400 nm, 50 µM JB253, ± SD
  % block: 44.0±29.6%
KATP channels; [2]
  τoff: 2758 ± 745 ms
  τon: 1176 ± 385 ms
KATP channels; λ 420 nm, 50 µM JB253, single representative experiment
  ΔI: 492 pA
KATP channels; λ 420 nm, 50 µM JB253, ± SD
  % block: 69.4±51.1%
KATP channels; [3]
  τoff: 2209 ± 482 ms
  τon: 1309 ± 438 ms
KATP channels; λ 440 nm, 50 µM JB253, single representative experiment
  ΔI: 440 pA
KATP channels; λ 440 nm, 50 µM JB253, ± SD
  % block: 70.0±44.3%
KATP channels; [4]
  τoff: 2295 ± 397 ms
  τon: 1246 ± 421 ms
KATP channels; λ 460 nm, 50 µM JB253, single representative experiment
  ΔI: 481 pA
KATP channels; λ 460 nm, 50 µM JB253, ± SD
  % block: 72.8±48.1%
KATP channels; [5]
  τoff: 1940 ± 322 ms
  τon: 1181 ± 447 ms
KATP channels; λ 480 nm, 50 µM JB253, single representative experiment
  ΔI: 487 pA
KATP channels; λ 480 nm, 50 µM JB253, ± SD
  % block: 72.4±49.0%
KATP channels; [6]
  τoff: 2183 ± 422 ms
  τon: 1163 ± 434 ms
KATP channels; λ 500 nm, 50 µM JB253, single representative experiment
  ΔI: 482 pA
KATP channels; λ 500 nm, 50 µM JB253, ± SD
  % block: 70.2±49.5%
KATP channels; [7]
  τoff: 2002 ± 354 ms
  τon: 1244 ± 462 ms
Epac2A
  ΔR/R0 (decrease in FRET): 0.064 AU
islets
  cytotoxicity to islets (necrosis indices, cell death versus DMSO-alone): did not appear to be cytotoxic
